From patent US8258123B2, “C-19 steroids for cosmetic and further uses” (ErlaCos GmbH, priority 2007, dated 2012)
“Also recorded” adds a separate entry of the source.

Legend:
[1] = test system: androgen receptor (AR); assay: Binding affinity to the androgen receptor against DHT as reference compound
Experimental: The compounds used according to the present invention preferably have a binding affinity to the androgen receptor (AR) higher than DHT; more preferably the binding affinity is high by having affinity specific to AR in a range of IC50≧500 nM, preferably IC50≧100 nM and more preferably IC50≧50 nM, wherein IC50 is defined as the concentration of the compound required to reduce specific binding of a reference compound, 5α-dihydrotestosterone (DHT), by 50%. The IC50-values can be determined by known methods using radioactively labelled DHT as reference compound, for example by a standard dextran-coated charcoal adsorption method as described by Raynaud et al., J. Steroid Biochem. 6, 615-622 (1975), using 1 nM reference concentrations of radiolabeled [^3H]-DHT, or by similar IC50 determination methods described in the literature. Because the concentration of AR in the target cell is very low, typically in the nanomolar range approximately, differences in binding constants to the order contemplated in the present invention are significant.

[2] = test system: 5α-reductase; assay: 5α-reductase inhibition; assay type: biochemical
Text: According to the present invention, the use may correspondingly be determined by selecting the C-19 steroid compound having the aforementioned effects or properties (iii) to (vi) alone or in combination. These effects or properties (iii) to (vi) can be measured by correspondingly known methods. For example, 5α-reductase activity can be measured by a method described by Mitamura et al., Analytical Sciences 21, 1241-1244 (2005). The use according to the present invention may be further determined by a suitable administrated amount of the compound, and by an appropriate application condition, such as type of user/patient, or type of target site or organ enabling the aforementioned effects or properties (iii) to (vi) alone or in combination.

[3] = test system: skin over the predilection areas of cellulite; assay: Topical treatment of the skin over the predilection areas of cellulite; assay type: in vivo
Text: The border between the two layers is made up of collagen fibres. Strengthening this border by increasing its collagen content by stimulating the fibroblasts to produce more collagen leads to a marked improvement of the appearance of cellulite.

[4] = test system: apocrine sweat glands in the axilla; assay: Topical application to the axilla, body odour; assay type: in vivo
Text: (§1) Not only in theory but also in practice the compounds of the present invention and in particular 4-OHT and its related analogous compounds are the ideal anabolic substances. […] This can be deduced from three different topical applications to the skin.
The majority of glands relevant for body odor are situated in the subcutaneous tissue. It is therefore difficult to apply effective substances directly. To this end a substance is preferably included facilitating the penetration into the skin.

[5] = test system: sebaceous glands; assay: Topical application to the face and other acne-prone skin areas; assay type: in vivo
Text: as §1

[6] = test system: hair follicles; assay: Topical treatment of body skin areas, hair growth; assay type: in vivo
Text: The situation in the body regions other than the scalp however is different. Sometimes hair growing excessively on other parts of the body is a nuisance. They are conventionally removed by depilation or epilation. Hot wax epilation restores the growth of hair in many dorming hair follicles (telogen hair) thereby increasing the frequency and painfulness of hot wax epilation. Pubic and axillary hair is sparse or absent in CAIS. Corresponding cell cultures contain as androgen predominantly testosterone and only traces of DHT. Growth of unwanted hair in the corresponding body regions cannot be prevented by blocking of 5α-reductase. According to the present invention, this is possible by blocking the androgen receptor against DHT. In almost all hair follicles (with the exception of scalp, pubic and axillary hair) specific cells of the dermal papilla are driven by DHT to promote hair growth.

[7] = test system: striae; assay: Topical treatment of striae; assay type: in vivo; conditions: suitable formulation containing 4-OHT
Text: Striae have also been treated according to the invention with a suitable formulation containing 4-OHT. […] Whereas striae rubrae are more disturbing on a fair skin striae albae are a considerable problem for dark skin.

[8] = test system: 5α-reductase; assay: Reduction by 5α-reductase
[9] = target: T1, aromatase (Homo sapiens, UniProt P11511); assay: Aromatization by aromatase
T1 sequence (P11511 1-503): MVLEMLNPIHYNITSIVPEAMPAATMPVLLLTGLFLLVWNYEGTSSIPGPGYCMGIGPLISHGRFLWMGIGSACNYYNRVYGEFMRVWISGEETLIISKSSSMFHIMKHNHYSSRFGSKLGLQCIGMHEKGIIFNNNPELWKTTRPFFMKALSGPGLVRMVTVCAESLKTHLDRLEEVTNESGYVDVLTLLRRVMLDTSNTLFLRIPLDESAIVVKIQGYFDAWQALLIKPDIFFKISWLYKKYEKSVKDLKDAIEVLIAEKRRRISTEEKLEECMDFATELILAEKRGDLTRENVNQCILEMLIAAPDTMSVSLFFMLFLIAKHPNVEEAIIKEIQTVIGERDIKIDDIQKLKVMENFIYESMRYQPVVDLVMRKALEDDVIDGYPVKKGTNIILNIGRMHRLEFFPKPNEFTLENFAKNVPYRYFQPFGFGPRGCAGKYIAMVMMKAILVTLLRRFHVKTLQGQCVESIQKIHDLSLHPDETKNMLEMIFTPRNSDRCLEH

[10] = test system: forehead skin; conditions: applied to the forehead skin of patients with acne, 1% solution; cited from earlier work
[11] = loaded to solid lipid nanoparticles; cited from earlier work

Row | Structure (SMILES) | binding affinity to the AR compared with DHT [1] | inhibition of 5α-reductase [2] | adipose tissue / adipocytes ([3]; topical) | topical formulation compared with 4-OHA ([3]; topical formulation, collagen content of the skin) | solidification of the skin ([3]; topical preparation, within four weeks) | concentration of collagen fibres ([3]; topical, skin areas over the buttocks) | androgenic effect after application to the skin ([3]; topical, hair growth or pimples) | effect on body odor of the combination with a penetration enhancer ([4]; combination with dimethyl isosorbide (Arlasolve DMI)) | androgen dependent production of volatile fatty acids responsible for body odour ([4]; topical, axilla) | size and capability of sebaceous glands [5] | type of hair produced by the follicles ([6]; after six months) | growth of body hairs ([6]; body regions other than scalp) | striae rubrae and striae albae [7] | thickness of the skin [7] | 5α-reduction [8] | aromatization [9] | sebum excretion rate [10] | increase in CPA absorption by the skin [11]
1 | C[C@]12CC[C@H]3[C@@H](CCC4=C(O)C(=O)CC[C@@]43C)[C@@H]1CC[C@@H]2O [4-OHT, 4,17β-dihydroxyandrost-4-en-3-one] | higher affinity to the AR than DHT | able to inhibit this enzyme (probably both isoforms) | marked diminution and shrinkage of the adipocytes; also recorded: shrinkage of adipose tissue | superior than 4-OHA | considerable solidification of the skin | anabolically increases the concentration of collagen fibres | no androgenic effect whatsoever could be observed | Optimal results | immediately prevents the androgen dependent production of volatile fatty acids | reduces size and capability of sebaceous glands | most of the follicles are producing solely vellous hair | grow slower and less dense and in addition thinner and blonder | makes them disappear | increasing thickness of the skin | escapes aromatization or 5α-reduction | escapes aromatization or 5α-reduction |  | 
2 | CC(=O)O[C@]1(C(C)=O)CC[C@H]2[C@@H]3C=C(Cl)C4=CC(=O)[C@@H]5C[C@@H]5[C@]4(C)[C@H]3CC[C@@]21C [Cyproterone acetate, cyproterone acetate] |  |  |  |  |  |  |  |  |  |  |  |  |  |  |  |  | not able to reduce the sebum excretion rate | 2-3 fold
